The test has as its system parental DU145 cells that do not express PSMA. In words: In vitro uptake of 99mTc tracers in parental DU145 cells. The class given is cell-based. The settings on record: PSMA-negative DU145 cells, 1 h. Here is the method: To compare the relative uptake and specificity of the new radiotracers for PSMA, [^99mTcO2(DP^Ph-PSMAt)2]^+, [^99mTcO2(DP^An-PSMAt)2]^+ and [^99mTcO2(DP^MEP-PSMAt)2]^+ (50 kBq) were purified from unreacted ^99mTc precursors and excess DP-PSMAt peptide, and each incubated with PSMA-expressing DU145-PSMA+ prostate cancer cells[33] or LNCaP prostate cancer cells (5 × 10^5 cells). After 1 h incubation, uptake of each radiotracer was quantified. […]
4.9 99mTc uptake in DU145, DU145-PSMA+ and LNCaP cells
The following experiment was performed in biological triplicate.
A panel of cell lines were selected that either expressed GCP(II)/PSMA (DU145-PSMA+ (genetically modified to express PSMA),12 and LNCaP (CRL‐1740)), or had low GCP(II)/PSMA expression (DU145 (HTB-81)). All cell lines were cultured in RPMI 1640 medium (R0883, Sigma) containing 10% foetal bovine serum, 2 mM L-glutamine, and 100 U mL−1 penicillin and 100 µg mL−1 streptomycin. Cells were maintained at 37 °C and 5% CO 2. Cells were seeded in 6-well plates at a density of 5 × 10^5 cells per well […]
in 2 mL complete media to achieve 70–80% confluency the following day. […] The cells were lysed with ice cold radioimmunoprecipitation assay buffer (RIPA buffer, 500 μL; 150 mM sodium chloride, 0.1% w/w sodium dodecyl sulfate (SDS), 0.5% w/w sodium deoxycholate (NaDOC), 1% w/w Triton-X) and samples were collected for radioactivity counting. […]

Structures are written as SMILES.

As for `COCCOc1ccc(P(/C(C(=O)O)=C(/C(=O)NCCOCCOCCOCCOCCC(=O)NCCCC[C@H](NC(=O)N[C@@H](CCC(=O)O)C(=O)O)C(=O)O)P(c2ccc(OCCOC)cc2)c2ccc(OCCOC)cc2)c2ccc(OCCOC)cc2)cc1` [[^99mTcO2(DP^MEP-PSMAt)2]^+, metal not drawn], the “uptake in parental DU145 cells” value was “negligible uptake”. With `COc1ccc(P(/C(C(=O)O)=C(/C(=O)NCCOCCOCCOCCOCCC(=O)NCCCC[C@H](NC(=O)N[C@@H](CCC(=O)O)C(=O)O)C(=O)O)P(c2ccc(OC)cc2)c2ccc(OC)cc2)c2ccc(OC)cc2)cc1` [[^99mTcO2(DP^An-PSMAt)2]^+, metal not drawn], the “uptake in parental DU145 cells” value is “negligible uptake”.
